# Data reported in a melting point compilation (Tetko et al.; mined from patent text by program, amines drawn as free bases though some values may be those of a salt).
row,Compound,melting point
1,COC1CC2CC(OC(=O)c3ccccc3)CCC2(C)C2CCC3(C)C(=C12)C(O)CC3C(C)CCCC(C)C (stereo not drawn),182 to 183 °C
2,CCCCc1nc2c(N)nc3ccccc3c2n1OC(C)C,118 to 119 °C
3,Cc1noc(C)c1S(=O)(=O)Nc1ccc(Cl)cc1[N+](=O)[O-],130 to 131 °C
4,CSc1nc(N)c(O)c(=O)[nH]1,243 to 245 °C
5,ClCc1cc(-c2ccccc2)nc2ccccc12,79 °C
6,c1ccc(CSc2nccn2-c2ccccn2)cc1,76 to 77 °C
7,COc1ccc(-c2cccc3ccsc23)cc1,74 to 75 °C
8,COC1(c2cc(F)cc(OCc3ccc4c(c3)CCC(=S)N4C)c2)CCOCC1,136 to 138 °C
9,COc1ccc(N(S(=O)(=O)c2ccc(C)cc2)S(=O)(=O)c2ccc(C)cc2)c([N+](=O)[O-])c1,180 to 182 °C
10,CC(C)c1ccc(-n2c(CC(=O)O)c(C(=O)O)c3cc(Oc4cccc(C(F)(F)F)c4)ccc32)cc1,185 to 190 °C
11,COC(=O)/C=C(/C#Cc1ccccc1)c1ccccc1,73 to 75 °C
12,N#CC(C#N)CC(=O)c1ccc(Cl)c(Cl)c1,142 to 145 °C
13,Clc1ccc(Cn2cnc3c(Cl)ncnc32)cc1Cl,130 to 133 °C
14,O=C(O)Cc1c(C(=O)O)c2cc(Oc3ccc(C(F)(F)F)cc3)ccc2n1-c1cccc(Cl)c1,236 to 238 °C
15,CC(=O)NC[C@H]1CN(c2cccc(F)c2)C(=O)O1,140 °C
16,O=[N+]([O-])c1c(O)ccnc1O,> 230 °C
17,Cn1nc(-c2c(Cl)cncc2Cl)nc1C1(C)CC1(Cl)Cl (stereo not drawn),79 to 83 °C
18,C=C1C[C@@H]2C(=O)OC(=O)[C@@H]2C1,50 to 51 °C
19,CC(C)NCC(O)COc1cccc(-c2nc(C(F)(F)F)c[nH]2)c1 (stereo not drawn),162 to 164 °C

row,Compound,melting point
1,Cc1cc(-c2cc(C(F)(F)F)n3ncc(-c4cccnc4)c3n2)ccc1C(F)(F)F,177 °C
2,CCOC(=O)C1=C(C)NC(C)=C(C(=O)OCC)C1c1ccccc1C=Cc1ccc(Cl)cc1,178 to 181 °C
3,CN(C(=O)c1ccc(Cl)cc1)[C@@H]1CCN(C(=O)Nc2ccc(F)nc2)C[C@H]1c1ccc(Cl)c(Cl)c1,156 to 158 °C
4,COc1ccc(Cl)cc1C(=O)NCCC1CCN(S(=O)(=O)NC(=O)NC2CC2)CC1,138 to 139 °C
5,COc1cccc2c1OC(CN1CC=C(c3c[nH]c4ncccc34)CC1)CO2 (stereo not drawn),207 to 210 °C
6,O=c1c(-c2ccccc2)c[nH]cc1-c1ccccc1,> 335 °C
7,COC(=O)c1ccc(OCCNC(=O)C2Cc3ccccc3N2S(=O)(=O)c2ccc(-c3cccc(C(F)(F)F)c3)cc2)cc1C(F)(F)F (stereo not drawn),75 to 79 °C
8,Cc1cc(C)cc(C(=O)Cc2ccnc(N)c2)c1,123 to 126 °C
9,COC(=O)Cc1coc2cc(C(=O)NC(C(=O)NCc3ccccc3)c3ccccc3)ccc12 (stereo not drawn),129 to 131 °C
10,Cc1cc(C)c(C=NCc2ccc(Cl)nc2)c(C)c1,47 to 48 °C
11,Cn1ccnc1S(=O)(=O)C(C#N)=Cc1c(Cl)n(CC2CC2)c2ccccc12,214 °C
12,COc1cccc2c(=O)cc(C3CC3C(=O)O)oc12 (stereo not drawn),193 to 196 °C
13,O=C(OCC1OC(n2ccc(=O)[nH]c2=O)C(OC(=O)c2ccccc2)C1OC(=O)c1ccccc1)c1ccccc1 (stereo not drawn),143 to 144 °C
14,O=C(c1cccnc1)N1CCC(c2ccc(F)cc2)=N1,128 to 130 °C
15,CCOc1ncc(C(C)=O)cc1C(=O)Nc1c(C(N)=O)nn(C2CCN(C(=O)OC(C)(C)C)CC2)c1CC,197 to 202 °C
16,BrCCCCCCCc1ccc(OCc2ccccc2)cc1,32 to 34 °C
17,CC[C@H]1CC[C@H](c2ccc(CCc3ccc(OC(F)F)cc3)cc2)CC1,51 °C
18,CCOC(=O)c1cnn2c1nc(S)c1cnc3c(cnn3CC)c12,238 to 240 °C
19,C[C@@H](S[C@H]1CO[C@H](/C=C/c2ccc(C(F)(F)F)cc2)OC1)[C@](O)(Cn1cncn1)c1ccc(F)cc1F,73 to 75 °C
